Experimental data: PubChem BioAssay AID1918955 (Molecular Pharmacology Branch, DTP, NCI, 2023)

Test system: NCI/ADR-RES complex spheroid viability
Assay: Anticancer human tumor NCI/ADR-RES cell line growth inhibition;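 for viability, T/C: 100% = DMSO vehicle treated spheroids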
Conditions: for IC50: curve of first compound; for viability, T/C: stronger effect = lower value
How it was run: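 Complex spheroids of tumor cells with HUVEC and human MSCs, exposed to iadademstat combined with other agents. Each agent tested in half-log steps from near clinical Cmax (else 10 microM top), DMSO ≤0.25%.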

[1] = second compound 0.1 µM, first compound 0.00949 µM
[2] = second compound 0.1 µM, first compound 0.03 µM
[3] = second compound 0.1 µM, first compound 0.0949 µM
[4] = second compound 0.1 µM, first compound 0.3 µM
[5] = second compound 0.316 µM, first compound 0.00949 µM
[6] = second compound 0.316 µM, first compound 0.03 µM
[7] = second compound 0.316 µM, first compound 0.0949 µM
[8] = second compound 0.316 µM, first compound 0.3 µM
[9] = second compound 1 µM, first compound 0.00949 µM
[10] = second compound 1 µM, first compound 0.03 µM
[11] = second compound 1 µM, first compound 0.0949 µM
[12] = second compound 1 µM, first compound 0.3 µM
[13] = second compound 3.16 µM, first compound 0.00949 µM
[14] = second compound 3.16 µM, first compound 0.03 µM
[15] = second compound 3.16 µM, first compound 0.0949 µM
[16] = second compound 3.16 µM, first compound 0.3 µM
[17] = second compound 10 µM, first compound 0.00949 µM
[18] = second compound 10 µM, first compound 0.03 µM
[19] = second compound 10 µM, first compound 0.0949 µM
[20] = second compound 10 µM, first compound 0.3 µM
[21] = second compound 0.1 µM, first compound 0.949 µM
[22] = second compound 0.1 µM, first compound 3 µM
[23] = second compound 0.316 µM, first compound 0.949 µM
[24] = second compound 0.316 µM, first compound 3 µM
[25] = second compound 1 µM, first compound 0.949 µM
[26] = second compound 1 µM, first compound 3 µM
[27] = second compound 3.16 µM, first compound 0.949 µM
[28] = second compound 3.16 µM, first compound 3 µM
[29] = second compound 10 µM, first compound 0.949 µM
[30] = second compound 10 µM, first compound 3 µM

SMILES | IC50 (second compound 0.1 µM) [nM] | IC50 (second compound 0.316 µM) [nM] | IC50 (second compound 1 µM) [nM] | IC50 (second compound 3.16 µM) [nM] | IC50 (second compound 10 µM) [nM] | viability, T/C [1] [%] | viability, T/C [2] [%] | viability, T/C [3] [%] | viability, T/C [4] [%] | viability, T/C [5] [%] | viability, T/C [6] [%] | viability, T/C [7] [%] | viability, T/C [8] [%] | viability, T/C [9] [%] | viability, T/C [10] [%] | viability, T/C [11] [%] | viability, T/C [12] [%] | viability, T/C [13] [%] | viability, T/C [14] [%] | viability, T/C [15] [%] | other results
Nc1ncn(C2CC(O)C(CO)S2)c(=O)n1 (stereo not given) + NC1CC1c1ccc(-c2cccc(O)c2)cc1 | 7.4 | 7.52 | 6.82 | 5.54 | 4.48 | 44.7 | 29.6 | 11.8 | 2.46 | 47.8 | 30.6 | 9.77 | 2.75 | 41.2 | 25.5 | 9.64 | 2.79 | 43 | 24.6 | 9.31 | viability, T/C (second compound 0.1 µM, first compound 0.000949 µM): 89.3%; viability, T/C (second compound 0.1 µM, first compound 0.003 µM): 66%; viability, T/C (second compound 0.316 µM, first compound 0.000949 µM): 91.2%; viability, T/C (second compound 0.316 µM, first compound 0.003 µM): 62.5%; viability, T/C (second compound 1 µM, first compound 0.000949 µM): 88.4%; viability, T/C (second compound 1 µM, first compound 0.003 µM): 68%; viability, T/C (second compound 3.16 µM, first compound 0.000949 µM): 85.4%; viability, T/C (second compound 3.16 µM, first compound 0.003 µM): 58.3%; viability, T/C [16]: 2.63%; viability, T/C (second compound 10 µM, first compound 0.000949 µM): 77%; viability, T/C (second compound 10 µM, first compound 0.003 µM): 54%; viability, T/C [17]: 38.6%; viability, T/C [18]: 26.2%; viability, T/C [19]: 11.8%; viability, T/C [20]: 3.24%
O=C(C=Cc1cccc(S(=O)(=O)Nc2ccccc2)c1)NO + NC1CCC(NC2CC2c2ccccc2)CC1 | 82.2 | 78.1 | 78.3 | 76.7 | 29.8 | 99.7 | 85.7 | 39.4 | 24.7 | 97.1 | 85.2 | 40.7 | 17.5 | 104 | 82 | 41.5 | 19.4 | 95.6 | 78.7 | 42.9 | viability, T/C [21]: 9.06%; viability, T/C [22]: 2.6%; viability, T/C [23]: 7.56%; viability, T/C [24]: 2.59%; viability, T/C [25]: 10.1%; viability, T/C [26]: 1.53%; viability, T/C [16]: 17.8%; viability, T/C [27]: 8.22%; viability, T/C [28]: 5.29%; viability, T/C [17]: 75.2%; viability, T/C [18]: 47.6%; viability, T/C [19]: 34.4%; viability, T/C [20]: 16.6%; viability, T/C [29]: 6.54%; viability, T/C [30]: 6.09%
O=C(C=Cc1cccc(S(=O)(=O)Nc2ccccc2)c1)NO + NC1CC1c1ccc(-c2cccc(O)c2)cc1 | 79.4 | 85.5 | 79 | 90 | 73.3 | 110 | 85.7 | 42.1 | 17.2 | 102 | 86.8 | 44.9 | 17.3 | 107 | 77.5 | 46 | 18.2 | 97 | 76.4 | 49.8 | viability, T/C [21]: 5.63%; viability, T/C [22]: 1.57%; viability, T/C [23]: 7.86%; viability, T/C [24]: 1.94%; viability, T/C [25]: 8.7%; viability, T/C [26]: 1.47%; viability, T/C [16]: 22.1%; viability, T/C [27]: 9.4%; viability, T/C [28]: 1.58%; viability, T/C [17]: 102%; viability, T/C [18]: 71.5%; viability, T/C [19]: 44.1%; viability, T/C [20]: 22.5%; viability, T/C [29]: 13.5%; viability, T/C [30]: 3.92%
